The source made the active and inactive calls. No cut-off for these calls is given here.

Results on six molecules are retold here after ChEMBL document CHEMBL5150035, “Mechanism-based inhibition of GH127/146 cysteine glycosidases by stereospecifically functionalized l-arabinofuranosides” (Bioorg Med Chem, 2022).

The target in data set [1] is T1, Non-reducing end beta-L-arabinofuranosidase (Bifidobacterium longum subsp. longum) (UniProt E8MGH8).
T1 sequence (whole entry): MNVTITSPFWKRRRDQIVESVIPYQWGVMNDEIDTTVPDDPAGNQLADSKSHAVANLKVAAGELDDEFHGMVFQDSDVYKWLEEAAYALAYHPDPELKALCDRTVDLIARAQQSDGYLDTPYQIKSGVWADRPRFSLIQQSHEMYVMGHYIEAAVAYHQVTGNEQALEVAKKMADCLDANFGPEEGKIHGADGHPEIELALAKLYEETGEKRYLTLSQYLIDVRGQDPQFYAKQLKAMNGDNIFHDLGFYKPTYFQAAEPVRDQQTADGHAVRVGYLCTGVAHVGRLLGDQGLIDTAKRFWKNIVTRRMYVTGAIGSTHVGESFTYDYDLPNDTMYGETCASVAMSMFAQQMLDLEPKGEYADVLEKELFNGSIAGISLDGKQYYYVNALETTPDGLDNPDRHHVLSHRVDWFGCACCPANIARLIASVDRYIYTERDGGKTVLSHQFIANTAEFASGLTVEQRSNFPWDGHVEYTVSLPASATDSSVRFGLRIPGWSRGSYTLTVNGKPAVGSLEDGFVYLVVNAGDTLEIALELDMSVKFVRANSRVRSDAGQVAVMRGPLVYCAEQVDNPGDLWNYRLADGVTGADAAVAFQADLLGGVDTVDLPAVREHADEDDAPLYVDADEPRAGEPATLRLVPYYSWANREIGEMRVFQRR
As to the kind of experiment: Inhibition of C-terminal-His6-tagged Bifidobacterium longum HypBA1 expressed in Escherichia coli C43 (DE3) cells assessed as reduction in pNP liberation using pNP-beta-L-Araf as substrate at 0.1 to 1 mM preincubated with enzyme for 2 hrs followed by substrate addition and measured after 24 hrs by spectrophotometric analysis. The note with it: dose 0.1-1 mM, time 26.0 hrs.

Data set [2] concerns the target T1, Non-reducing end beta-L-arabinofuranosidase (Bifidobacterium longum subsp. longum). As to the kind of experiment: Inhibition of C-terminal-His6-tagged Bifidobacterium longum HypBA1 expressed in Escherichia coli C43 (DE3) cells […] using L-Araf3-Hyp as substrate preincubated with enzyme for 2 hrs followed by substrate addition and measured after 24 hrs by spectrophotometric analysis. Particulars: time 26.0 hrs.

Data set [3] in a line: Drug metabolism assessed as hydrolysed metabolite formation at 10 mM incubated for 24 hrs in presence of TCEP by TLC analysis. The note with it: 10000 µM. It is filed as ADME.
Data set [4] is described as follows: Substrate activity at Bifidobacterium longum JCM 1217 HypBA1 homologue BLLJ_1848 at 10 mM incubated for 24 hrs in absence of TCEP by TLC analysis. The format is ADME. The note with it: 10000 µM.
Data set [5] is described as follows: Substrate activity at Bifidobacterium longum JCM 1217 HypBA1 homologue BLLJ_1848 at 10 mM incubated for 24 hrs in presence of TCEP by TLC analysis. It is filed as ADME. The note with it: 10000 µM.
In data set [6] the test system is Bifidobacterium longum. As to the kind of experiment: Inhibition of Bifidobacterium longum JCM 1217 HypBA1 homologue BLLJ_1848 using S3 as substrate preincubated with enzyme followed by substrate addition for 30 mins in absence of TCEP by HPLC-FLD analysis.
Data set [7] deals with Bifidobacterium longum. As to the kind of experiment: Inhibition of Bifidobacterium longum JCM 1217 HypBA1 homologue BLLJ_1848 using S3 as substrate preincubated with enzyme followed by substrate addition for 30 mins in presence of TCEP by HPLC-FLD analysis.

As for `O=C(CBr)N[C@H]1O[C@@H](CO)[C@H](O)[C@H]1O`, the inhibition result in data set [1] was “Active”.
As to `O=C(CCl)N[C@@H]1O[C@@H](CO)[C@H](O)[C@H]1O`, in data set [2], the inhibition entry was “Active”.
On the same count and under the same terms, the same measure for `O=C(CCl)N[C@H]1O[C@@H](CO)[C@H](O)[C@H]1O`: “Active”.
For `[N-]=[N+]=N[C@H]1O[C@@H](CO)[C@H](O)[C@H]1O`, the Drug metabolism result in data set [3] is reported as “Metabolite_Detected”. Further, the result in data set [4] and in data set [5] was Active.
As for `[N-]=[N+]=N[C@@H]1O[C@@H](CO)[C@H](O)[C@H]1O`, the Drug metabolism entry in data set [3] is recorded as “Metabolite_Detected”. Further, the inhibition result in the data set with Bifidobacterium longum [6] and in the data set on Bifidobacterium longum [7] was “Active” each time. Besides, in data set [5], the result was Active.
On to `O=C(CBr)N[C@@H]1O[C@@H](CO)[C@H](O)[C@H]1O`, for which, in data set [1], the inhibition entry is “Active”.
